Tests used:
[1] = system: HT-29 cells; test: MTT assay, induction of cell death by sphingolipids; assay type: cell-based, human
Method: The activity of sphingosine, sphinganine and 1-deoxy-5-hydroxy-sphinganine in a human colon cancer cell line was investigated. The structures of the tested compounds appear below. [drawing 4]
An MTT assay was used to determine the cytotoxicity of the compounds shown above. Only cells with intact mitochondria are able to form formazane crystals, whereas late apoptotic and necrotic cells are not. The optical density of formazane crystals is used to infer cell viability. A 15 μM treatment of 1-deoxy-5-hydroxy-sphinganine results in nearly 100% cell death in HT-29 cells after 24 hours.

[2] = system: colonic crypts; test: Cell proliferation in colonic crypts of DMH-treated mice fed GluAcCer; assay type: in vivo
Method: Female CF1 mice were injected with DMH to initiate colonic tumors. […] The control group was fed the AIN 76A diet without supplements (one group without DMH and the other with DMH only). After four weeks, the mice were killed, the colons excised, and evaluated for the appearance of ACF.
The effect of GluAcCer on cell proliferation was also investigated since a deregulation of cell growth is observed in carcinogenesis. […] Therefore, feeding synthetic GluAcCer to mice suppresses the formation of early stages in colon carcinogenesis, possibly by restricting the proliferation to the lower half of the colonic crypt.

[3] = target: T1, β-glucuronidase from E. coli (Escherichia coli, UniProt P05804); test: Cleavage of GluAcCer by bacterial β-glucuronidase; assay type: biochemical; details: β-glucuronidase from E. coli (Sigma), supplier's instructions
T1 construct: purchased Sigma
T1 sequence (P05804 whole entry): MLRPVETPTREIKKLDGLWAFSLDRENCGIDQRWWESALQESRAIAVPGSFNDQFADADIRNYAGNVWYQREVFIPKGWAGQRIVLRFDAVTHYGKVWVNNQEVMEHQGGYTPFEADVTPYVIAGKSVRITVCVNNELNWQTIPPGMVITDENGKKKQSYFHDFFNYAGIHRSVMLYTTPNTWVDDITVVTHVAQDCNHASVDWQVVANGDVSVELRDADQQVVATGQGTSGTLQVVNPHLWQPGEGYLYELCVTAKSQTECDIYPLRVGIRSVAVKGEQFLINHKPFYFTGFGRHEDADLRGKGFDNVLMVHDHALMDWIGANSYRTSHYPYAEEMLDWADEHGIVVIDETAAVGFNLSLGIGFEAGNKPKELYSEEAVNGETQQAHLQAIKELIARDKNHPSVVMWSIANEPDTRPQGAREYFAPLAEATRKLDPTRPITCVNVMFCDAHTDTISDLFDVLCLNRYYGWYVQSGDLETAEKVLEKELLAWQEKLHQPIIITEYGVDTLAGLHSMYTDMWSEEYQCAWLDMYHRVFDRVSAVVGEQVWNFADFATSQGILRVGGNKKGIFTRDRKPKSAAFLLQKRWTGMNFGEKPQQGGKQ
Excerpt: Glucornoylceramide (GluAcCer), a ceramide with a glucuronic acid headgroup was synthesized according to the methods described above. The metabolism of GluAcCer requires β-glucuronidase, an enzyme found in bacteria but not in human intestinal cells. Accordingly, dietary GluAcCer cannot be digested in the small intestine but should be hydrolyzed in the colon by the colonic microflora.

[4] = system: ACF (DMH-initiated colonic tumors); test: Chemically (DMH) induced colon cancer model, aberrant crypt foci (ACF) after dietary supplementation; assay type: in vivo, Female CF1 mice; details: for ACF: four weeks after DMH, control 30.2±4.19
Method: Female CF1 mice were injected with DMH to initiate colonic tumors. After initiation, the mice were fed and AIN 76A diet supplemented with GluAcCer (0.025 or 0.1% of the diet). The control group was fed the AIN 76A diet without supplements (one group without DMH and the other with DMH only). After four weeks, the mice were killed, the colons excised, and evaluated for the appearance of ACF.

[5] = system: C3H 10T1/2 cells; details: cited from earlier work; for promotion of transformed foci by phorbol esters: levels that affected protein kinase C but not noticeably cytotoxic
[6] = system: renal bladder and colon cancer cell lines; details: cited from earlier work
[7] = mouse, in vivo; cited from earlier work
[8] = system: DMH-induced tumors; details: cited from earlier work
[9] = system: aberrant colonic crypts induced by DMH; details: diet supplemented with 0.05% sphingomyelin, analyzed on week 7; cited from earlier work
[10] = in vivo; cited from earlier work

Compound: CCCCCCCCCCCCCC(O)CC(O)C(C)N (stereo not drawn) [1-deoxy-5-hydroxy-sphinganine]
- potency in inducing cell death relative to sphingosine and sphinganine [1]: at least twice as potent
- cell death ([1]; 15 μM treatment, after 24 hours): ~100%

Compound: CCCCCCCCCCCCC/C=C/[C@@H](O)[C@H](CO[C@@H]1O[C@H](C(=O)O)[C@@H](O)[C@H](O)[C@H]1O)NC(=O)CCCCCCCCCCCCCCC [GluAcCer, 1-O-B-D-Glucuronoyl-2N-palmitoylsphingosine]
- proliferation in the lower half of the colonic crypts ([2]; GluAcCer (FIG. 13b)): reduced the proliferation
- proliferation in the upper half of the crypts ([2]; both concentrations of GluAcCer in the diet (FIG. 13a)): reduced proliferation in the upper half of the crypts in a dose dependent manner
- ability to be cleaved by bacterial enzymes [3]: cleaved by bacterial enzymes
- ACF ([4]; 0.025% GluAcCer in AIN 76A diet): 21 ±2.94
- inhibition of ACF formation ([4]; 0.025 or 0.1% of the diet, versus control (FIG. 12)): 20-30%
- ACF ([4]; 0.1% GluAcCer in AIN 76A diet): 19.2±3.09

Compound: CCCCCCCCCCCCCCC[C@@H](O)[C@@H](N)CO [sphinganine]
- treatment required to produce comparable (nearly 100%) cell death ([1]; after 24 hours): 50 µM
- number of transformed foci in cells treated with just γ-irradiation [5]: reduced the number of transformed foci
- promotion of transformed foci by phorbol esters [5]: completely blocked

Compound: CCCCCCCCCCCCC/C=C/C(O)C(N)CO [sphingosine, D-erythro-4-trans-sphinganine]
- treatment required to produce comparable (nearly 100%) cell death ([1]; after 24 hours): 50 µM
- number of transformed foci in cells treated with just γ-irradiation [5]: reduced the number of transformed foci
- promotion of transformed foci by phorbol esters [5]: completely blocked

Compound: Fumonisin B
- cytostatic activity [6]: has cytostatic activity

Compound: sphingomyelin
- label appeared in liver sphingolipids [7]: About 5%
- radiolabel progressed into the colon [7]: 3-5%
- tumor incidence versus control ([8]; milk sphingomyelin pilot and buttermilk sphingomyelin experiment): about half
- tumor type (adenomas versus adenocarcinomas) ([8]; second study with buttermilk sphingomyelin, histological analyses): more adenomas versus adenocarcinomas than for the control
- number of overall tumors ([8]; second study with buttermilk sphingomyelin): no reduction
- reduction in the number of aberrant colonic crypts induced by DMH [9]: 50%
- peak absorption of radiolabel after feeding [10]: 10 h
- radiolabel found in feces, mainly as ceramide [10]: 21-46%
- radiolabel recovered in lymph [10]: up to 30%
